According to a flash point compilation (Sun et al. 2020):

| SMILES | flash point [°C] |
| --- | --- |
| CCCCCO [1-pentanol] | 49 |
| Cc1cccc(Cl)c1 [3-chlorotoluene] | 50 |
| CC(=O)C(C)C [3-methyl-2-butanone] | -1 |
| C=C(C)C(=O)OCC [ethylmethacrylate] | 19 |
| CCC(C)(C)C(C)(C)C [2,2,3,3-tetramethylpentane] | 16 |
| Clc1cccc(Cl)c1 [1,3-dichlorobenzene] | 63 |
| C=CCC#N [3-butenenitrile] | 21 |
| Cc1ccc(O)c(C)c1 [2,4-dimethylphenol] | 94 |
| Cc1cccc(N)c1C [2,3-dimethylaniline] | 96 |
| CC1CCCC(=O)CCC1 [5-methylcyclooctanone] | 71 |
| C=CC(CC)CCC (stereo not given) [3-ethyl-1-hexene] | 1 |
| CCCCc1ccc(N)cc1 [4-butylaniline] | 102 |
| CCCCN(CCCC)CCCC [tributylamine] | 71 |
| CCCCCCC(C)CC (stereo not given) [3-methylnonane] | 41 |
| Cc1cc(C)nc(C)c1 [2,4,6-trimethylpyridine] | 54 |
| CCCc1ccc(OC)cc1 [4-propylanisole] | 82 |
| CCc1cccc(C)c1 [m-ethyltoluene] | 38 |
| CCCCCCCCCCCl [1-chlorodecane] | 83 |
| C/C=C/CCCC [trans-2-heptene] | -6 |
| CCC(=O)OC(C)(C)C [tert-butylpropanoate] | 20 |
| CCCCCOC=O [pentylformate] | 26 |
| CC=C1CC2C=CC1C2 (stereo not given) [5-ethylidene-2-norbornene] | 29 |

| SMILES | flash point [°C] |
| --- | --- |
| C1CCSC1 [thiacyclopentane] | 13 |
| CCO [ethanol] | 12 |
| CCCC(C)(C)S [2-methyl-2-pentanethiol] | 20 |
| CCCC=O [butanal] | -7 |
| CCC(O)CC [3-pentanol] | 33 |
| CCC(C)C(C)C(C)CC (stereo not given) [3,4,5-trimethylheptane] | 31 |
| CCCCCC(C)(C)C [2,2-dimethylheptane] | 24 |
| CCC(C=O)CC [2-ethylbutanal] | 21 |
| CC(C)[N+](=O)[O-] [2-nitropropane] | 28 |
| C=CN(C)C(C)=O [N-vinyl-N-methylacetamide] | 63 |
| CC(=O)CC(=O)OC(C)(C)C [tert-butylacetoacetate] | 76 |
| CCCCCCCCCCCC=O [dodecanal] | 102 |
| CCC(C)C(CC)CC (stereo not given) [3-ethyl-4-methylhexane] | 15 |
| CCOCCOC(C)=O [2-ethoxyethylacetate] | 51 |
| CCC(C)(C)c1ccccc1 [2-phenyl-2-methylbutane] | 59 |
| CC#CCCCCCCCCC [2-dodecyne] | 78 |
| CC(C)C(C)C(C)C(C)C (stereo not given) [2,3,4,5-tetramethylhexane] | 31 |
| CC(C)C#N [isobutyronitrile] | 8 |
| CCCCC=C(C)C [2-methyl-2-heptene] | 9 |
| CC(C)COC(=O)c1ccccc1 [isobutylbenzoate] | 102 |
| CNC(C)C [N-methylisopropylamine] | -20 |
| COC(=O)C1CCCCC1 [methylcyclohexanecarboxylate] | 60 |

| SMILES | flash point [°C] |
| --- | --- |
| OCCCCCO [1,5-pentanediol] | 129 |
| Cc1ccnc(C)c1 [2,4-dimethylpyridine] | 47 |
| c1cc[nH]c1 [pyrrole] | 33 |
| Cc1ccccc1C(C)C [o-isopropyltoluene] | 50 |
| Cc1ccccc1C [o-xylene] | 30 |
| O=CC1CCCCC1 [cyclohexanecarboxaldehyde] | 41 |
| CC(=O)C(C)=O [2,3-butanedione] | 10 |
| C#CCCCC [1-hexyne] | -20 |
| C1CC[C@H]2CCCC[C@H]2C1 [cis-decalin] | 57 |
| CCCCCCCCCC(C)C [2-methylundecane] | 61 |
| CCCCCCN [hexylamine] | 27 |
| C=CCC(C)C [4-methyl-1-pentene] | -32 |
| CCCCOCCO [2-butoxyethanol] | 62 |
| CCOC(=O)c1ccccc1 [ethylbenzoate] | 84 |
| NCC1CCCCC1 [(aminomethyl)cyclohexane] | 43 |
| CCCC1CCCC1 [propylcyclopentane] | 16 |
| CCC(Cl)CCl (stereo not given) [1,2-dichlorobutane] | 27 |
| CCCCCCCCCCCc1ccccc1 [undecylbenzene] | 144 |
| O=Cc1ccco1 [furfural] | 58 |
| CCCCCCc1ccccc1 [hexylbenzene] | 83 |
| C=COCC [ethylvinylether] | -45 |
